Here are results for one molecule from patent US20040052837A1, “Lipid conjugated anti-cancer drugs and methods of use thereof” (priority 2002, published 2004).

This data set relates to phospholipase A2. Particulars: SUVs with 18:0,18:2-PC 80/20 mol %, Tris pH 8.8, 20 min.

Turning to `CCCCCCCCCCCCCCCCCC(=O)OCC(COP(=O)([O-])OCC[N+](C)(C)C)OC(=O)CCCc1ccc(N(CCCl)CCCl)cc1` (stereo not shown) [18:0, Chlorambucil-PC], the “hydrolysis by phospholipase A2” value is “total”.
